According to US9822130B2, “Triazolo-pyrazinyl derivatives useful as soluble guanylate cyclase activators” (Merck Sharp & Dohme Corp., priority 2014, dated 2017):

Molecular target: T1, sGC α1/β1 heterodimer stably expressed in CHO-K1 cell line (CHO-K1/sGC) (Homo sapiens, UniProt Q02108+Q02153)
T1 construct: expressed in transfected cells
T1 sequence (Q02108 1-690): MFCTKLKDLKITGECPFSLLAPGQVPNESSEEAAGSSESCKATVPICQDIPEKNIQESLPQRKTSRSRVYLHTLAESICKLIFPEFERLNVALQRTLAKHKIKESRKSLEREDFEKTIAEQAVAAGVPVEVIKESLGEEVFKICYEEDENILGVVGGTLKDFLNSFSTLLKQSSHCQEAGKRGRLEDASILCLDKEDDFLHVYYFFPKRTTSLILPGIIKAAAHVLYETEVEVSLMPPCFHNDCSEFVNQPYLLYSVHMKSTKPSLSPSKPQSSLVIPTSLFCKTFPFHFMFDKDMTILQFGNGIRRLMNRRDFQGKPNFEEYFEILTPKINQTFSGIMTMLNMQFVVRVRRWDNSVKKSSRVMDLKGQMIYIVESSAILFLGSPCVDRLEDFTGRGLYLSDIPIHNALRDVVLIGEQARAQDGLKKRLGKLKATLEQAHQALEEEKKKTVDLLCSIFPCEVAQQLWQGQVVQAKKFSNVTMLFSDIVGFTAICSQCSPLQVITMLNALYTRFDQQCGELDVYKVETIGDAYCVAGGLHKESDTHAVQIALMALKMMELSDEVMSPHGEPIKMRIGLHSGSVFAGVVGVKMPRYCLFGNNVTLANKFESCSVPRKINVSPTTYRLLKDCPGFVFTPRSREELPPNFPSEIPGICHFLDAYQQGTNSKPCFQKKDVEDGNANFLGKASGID
T1 sequence (Q02153 1-619): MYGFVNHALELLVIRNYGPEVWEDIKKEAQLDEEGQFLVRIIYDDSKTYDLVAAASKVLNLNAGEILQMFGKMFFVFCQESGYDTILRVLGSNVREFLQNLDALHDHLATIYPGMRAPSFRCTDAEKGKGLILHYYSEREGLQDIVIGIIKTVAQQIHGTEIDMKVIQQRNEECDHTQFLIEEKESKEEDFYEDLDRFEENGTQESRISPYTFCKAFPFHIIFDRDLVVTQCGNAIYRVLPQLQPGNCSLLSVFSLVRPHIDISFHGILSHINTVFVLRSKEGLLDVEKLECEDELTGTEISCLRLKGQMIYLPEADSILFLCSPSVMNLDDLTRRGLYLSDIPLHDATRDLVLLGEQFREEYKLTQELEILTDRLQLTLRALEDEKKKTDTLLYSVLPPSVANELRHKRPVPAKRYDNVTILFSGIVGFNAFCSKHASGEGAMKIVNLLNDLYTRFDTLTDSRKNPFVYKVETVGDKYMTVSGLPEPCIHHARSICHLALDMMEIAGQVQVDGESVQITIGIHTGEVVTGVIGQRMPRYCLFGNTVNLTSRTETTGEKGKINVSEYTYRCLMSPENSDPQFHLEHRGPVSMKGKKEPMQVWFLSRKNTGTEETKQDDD
Assay: Cell-based sGC Functional Assay (CASA Assay), cGMP generation
Conditions: CHO-K1/sGC cells, 1 hr at 37° C., cGMP by HTRF, presence or absence of 1 μM DETA-NO not given; for EC50: 4P fit, read-out: IP (nM) (inflection point); for Emax: read-out: % Act. (percent activation relative to maximum cGMP production of Compound A = 100%)
Summary of the method: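 CHO-K1 cells stably expressing human sGC α1/β1 (4×10^5/mL, 0.5 mM IBMX) were treated with compounds (2.5% DMSO final) ± 1 μM DETA-NO for 1 hr at 37° C. Intracellular cGMP measured by HTRF. Activity expressed as % of Compound A maximal cGMP; IP and maximum fold induction from 4P fit.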

EC50	Emax	Compound
23.3 nM		CCCCc1nc(-c2nc(O)c3c(n2)NC(=O)C3(C)c2ccc(Cl)c(F)c2)cn2ncnc12 (stereo not drawn) [Example 156B, 2-(8-butyl-[1,2,4]triazolo[1,5-a]pyrazin-6-yl)-5-(4-chloro-3-fluorophenyl)-4-hydroxy-5-methyl-5H-pyrrolo[2,3-d] pyrimidin-6(7H)-one]
72.7 nM		CCCCc1nc(-c2nc(O)c3c(n2)NC(=O)C3(C)c2ccc(Cl)cc2)cn2ncnc12 (stereo not drawn) [Example 157A, 2-(8-butyl-[1,2,4]triazolo[1,5-a]pyrazin-6-yl)-5-(4-chlorophenyl)-4-hydroxy-5-methyl-5H-pyrrolo[2,3-d]pyrimidin-6(7H)-one]
102 nM		CCCCc1nc(-c2nc(O)c3c(n2)NC(=O)C3(C)c2ccc(F)c(F)c2)cn2ncnc12 (stereo not drawn) [Example 158B, 2-(8-butyl-[1,2,4]triazolo[1,5-a]pyrazin-6-yl)-5-(3,4-difluorophenyl)-4-hydroxy-5-methyl-5H-pyrrolo[2,3-d]pyrimidin-6(7H)-one]
209 nM		CCCCc1nc(-c2nc(O)c3c(n2)NC(=O)C3(C)c2ccc(C(F)(F)F)cn2)cn2ncnc12 (stereo not drawn) [Example 159B, 2-(8-butyl-[1,2,4]triazolo[1,5-a]pyrazin-6-yl)-4-hydroxy-5-methyl-5-(5-(trifluoromethyl)pyridin-2-yl)-5H-pyrrolo[2,3-d]pyrimidin-6(7H)-one]
50.2 nM		CCCCc1nc(-c2nc(O)c3c(n2)NC(=O)C3(C)c2ccc(Cl)cn2)cn2ncnc12 (stereo not drawn) [Example 160A, 2-(8-butyl-[1,2,4]triazolo[1,5-a]pyrazin-6-yl)-5-(5-chloropyridin-2-yl)-4-hydroxy-5-methyl-5H-pyrrolo[2,3-d]pyrimidin-6(7H)-one]
303 nM		CCCCc1nc(-c2nc(O)c3c(n2)NC(=O)C3(C)c2ccc(C)cn2)cn2ncnc12 (stereo not drawn) [Example 161B, 2-(8-butyl-[1,2,4]triazolo[1,5-a]pyrazin-6-yl)-4-hydroxy-5-methyl-5-(5-methylpyridin-2-yl)-5H-pyrrolo[2,3-d]pyrimidin-6(7H)-one]
96.7 nM	100%	C[C@@]1(c2ccc(F)cc2)C(=O)Nc2nc(-c3cn4ncnc4c(Cc4ccc(F)cc4)n3)nc(O)c21 [Example 162B, (S)-2-(8-(4-fluorobenzyl)-[1,2,4]triazolo[1,5-a]pyrazin-6-yl)-5-(4-fluorophenyl)-4-hydroxy-5-methyl-5H-pyrrolo[2,3-d]pyrimidin-6(7H)-one]
1630 nM		CC(C)Cc1nc(-c2nc(O)c3c(n2)NC(=O)[C@@]3(C)c2ccc(F)cc2)cn2ncnc12 [Example 163A, (S)-5-(4-fluorophenyl)-4-hydroxy-2-(8-isobutyl-[1,2,4]triazolo[1,5-a]pyrazin-6-yl)-5-methyl-5,7-dihydro-6H-pyrrolo[2,3-d]pyrimidin-6-one]
780 nM		CCCc1nc(-c2nc(O)c3c(n2)NC(=O)C3(C)c2ccc(Cl)cc2)cn2ncnc12 (stereo not drawn) [Example 164A, 5-(4-chlorophenyl)-4-hydroxy-5-methyl-2-(8-propyl-[1,2,4]triazolo[1,5-a]pyrazin-6-yl)-5H-pyrrolo[2,3-d]pyrimidin-6(7H)-one]
1520 nM		CCCc1nc(-c2nc(O)c3c(n2)NC(=O)[C@@]3(C)c2ccc(F)cc2)cn2ncnc12 [Example 165A, (S)-5-(4-fluorophenyl)-4-hydroxy-5-methyl-2-(8-propyl-[1,2,4]triazolo[1,5-a]pyrazin-6-yl)-5,7-dihydro-6H-pyrrolo[2,3-d]pyrimidin-6-one]
711 nM		CCCc1nc(-c2nc(O)c3c(n2)NC(=O)C3(C)c2ccc(Cl)c(F)c2)cn2ncnc12 (stereo not drawn) [Example 166B, 5-(4-chloro-3-fluorophenyl)-4-hydroxy-5-methyl-2-(8-propyl-[1,2,4]triazolo[1,5-a]pyrazin-6-yl)-5H-pyrrolo[2,3-d]pyrimidin-6(7H)-one]

Further lines, the molecule ahead of its results:

Compound	EC50	Emax
CC1(c2ccc(F)c(F)c2)C(=O)Nc2nc(-c3cn4ncnc4c(CCCC(F)(F)F)n3)nc(O)c21 (stereo not drawn) [Example 146B, 5-(3,4-difluorophenyl)-4-hydroxy-5-methyl-2-(8-(4,4,4-trifluorobutyl)-[1,2,4]triazolo[1,5-a]pyrazin-6-yl)-5H-pyrrolo[2,3-d]pyrimidin-6(7H)-one]	45.5 nM	
CC1(c2ccc(F)c(Cl)c2)C(=O)Nc2nc(-c3cn4ncnc4c(CCCC(F)(F)F)n3)nc(O)c21 (stereo not drawn) [Example 147B, 5-(3-chloro-4-fluorophenyl)-4-hydroxy-5-methyl-2-(8-(4,4,4-trifluorobutyl)-[1,2,4]triazolo[1,5-a]pyrazin-6-yl)-5,7-dihydro-6H-pyrrolo[2,3-d]pyrimidin-6-one]	214 nM	
COc1ccc(C2(C)C(=O)Nc3nc(-c4cn5ncnc5c(CCCC(F)(F)F)n4)nc(O)c32)nc1 (stereo not drawn) [Example 148A, 4-hydroxy-5-(5-methoxypyridin-2-yl)-5-methyl-2-(8-(4,4,4-trifluorobutyl)-[1,2,4]triazolo[1,5-a]pyrazin-6-yl)-5H-pyrrolo[2,3-d]pyrimidin-6(7H)-one]	1090 nM	
Cc1ccc(C2(C)C(=O)Nc3nc(-c4cn5ncnc5c(CCCC(F)(F)F)n4)nc(O)c32)nc1 (stereo not drawn) [Example 149B, 4-hydroxy-5-methyl-5-(5-methylpyridin-2-yl)-2-(8-(4,4,4-trifluorobutyl)-[1,2,4]triazolo[1,5-a]pyrazin-6-yl)-5H-pyrrolo[2,3-d]pyrimidin-6(7H)-one]	990 nM	
O=C1Nc2nc(-c3cn4ncnc4c(CCCC(F)(F)F)n3)nc(O)c2C1(c1ccc(F)cn1)C1CC1 (stereo not drawn) [Example 150A, 5-cyclopropyl-5-(5-fluoropyridin-2-yl)-4-hydroxy-2-(8-(4,4,4-trifluorobutyl)-[1,2,4]triazolo[1,5-a]pyrazin-6-yl)-5,7-dihydro-6H-pyrrolo[2,3-d]pyrimidin-6-one]	1220 nM	
C[C@@]1(c2ccc(F)cc2)C(=O)Nc2nc(-c3cn4ncnc4c(CCC(F)(F)F)n3)nc(O)c21 [Example 151A, (S)-5-(4-fluorophenyl)-4-hydroxy-5-methyl-2-(8-(3,3,3-trifluoropropyl)-[1,2,4]triazolo[1,5-a]pyrazin-6-yl)-5,7-dihydro-6H-pyrrolo[2,3-d]pyrimidin-6-one]	1490 nM	
CC1(c2ccc(Cl)cc2)C(=O)Nc2nc(-c3cn4ncnc4c(CCC(F)(F)F)n3)nc(O)c21 (stereo not drawn) [Example 152A, 5-(4-chlorophenyl)-4-hydroxy-5-methyl-2-(8-(3,3,3-trifluoropropyl)-[1,2,4]triazolo[1,5-a]pyrazin-6-yl)-5H-pyrrolo[2,3-d]pyrimidin-6(7H)-one]	133 nM	70%
CC1(c2ccc(Cl)c(F)c2)C(=O)Nc2nc(-c3cn4ncnc4c(CCC(F)(F)F)n3)nc(O)c21 (stereo not drawn) [Example 153B, 5-(4-chloro-3-fluorophenyl)-4-hydroxy-5-methyl-2-(8-(3,3,3-trifluoropropyl)-[1,2,4]triazolo[1,5-a]pyrazin-6-yl)-5H-pyrrolo[2,3-d]pyrimidin-6(7H)-one]	310 nM	
CCCCc1nc(-c2nc(O)c3c(n2)NC(=O)[C@@]3(C)c2ccc(F)cc2)cn2ncnc12 [Example 154A, (S)-2-(8-butyl-[1,2,4]triazolo[1,5-a]pyrazin-6-yl)-5-(4-fluorophenyl)-4-hydroxy-5-methyl-5,7-dihydro-6H-pyrrolo[2,3-d]pyrimidin-6-one]	27.2 nM	100%
CCCCc1nc(-c2nc(O)c3c(n2)NC(=O)C3(C)c2ccc(F)cn2)cn2ncnc12 (stereo not drawn) [Example 155B, 2-(8-butyl-[1,2,4]triazolo[1,5-a]pyrazin-6-yl)-5-(5-fluoropyridin-2-yl)-4-hydroxy-5-methyl-5H-pyrrolo[2,3-d] pyrimidin-6(7H)-one]	163 nM	
